How the values were obtained:
[1] = test system: Vero cells infected with virus particles
[2] = test system: African Swine Fever Virus (ASFV)

| SMILES | CPE (first test) [1] | CPE (second test) [1] | Visual scoring of protection against the cytopathic effect of the virus [1] | Solubility in the test solution [1] | Cq value for ASFV compared to positive control [2] |
| --- | --- | --- | --- | --- | --- |
| CCCCCC(=O)O [100% C6, caproic acid] | 3/3 | 3/3 |  |  |  |
| CCCCCCCC(=O)O [100% C8, caprylic acid] | 2/2 | 2/2 | scored best |  |  |
| CCCCCCCCC(=O)O [100% C9, pelargonic acid] | 2/2 | 2/2 |  |  |  |
| CCCCCCCCCC(=O)O [100% C10, capric acid] | 2/4 | 2/4 |  |  |  |
| CCCCCCCCCCCC(=O)O [100% C12, lauric acid] |  |  |  | solubility issue was observed |  |
| CCCCCCCC(=O)O [Composition F1, caprylic acid] |  |  |  |  | significantly increase the Cq value |

— patent US20230114459A1, “Composition for Use in the Prophylaxis and Treatment of Viral Infections of the Asfarviridae Family” (priority 2020, published 2023)
